# Data published in US20250346599A1, “TRICYCLIC PHTHALAZINONE PARP INHIBITORS AND METHODS OF USE” (Valo Health, Inc., priority 2022, published 2025).
# “And” between values parts separate entries of the source, which are not always exact repeats. Equal values may be shown once.
# Target: PARP1 enzyme (Homo sapiens (Human), UniProt P09874)
# Assay: PARP Mass Spectroscopy Assay (PARP1 enzymatic assay, nicotinamide detection)
# Assay type: biochemical
# Settings: 5 nM PARP1, 5 uM β-NAD, 60 min at RT, NAM by mass spectrometry
# From the text: Materials and Reagents: The PARP1 enzyme was purchased from BPS Bioscience (cat #80501). Tris-HCl, pH 8.0 was purchased from Corning (cat #46-031-CM). Magnesium chloride was purchased from Thermo Fisher Scientific (previously Honeywell Fluka, cat #63020-1L). All other assay components, activated DNA (cat #D4522), core histones (cat #SRP6590), β-Nicotinamide adenine dinucleotide (β-NAD—cat #N8285), 3ABA PARP1 small molecule inhibitor (from the PARP1 Enzyme Activity Assay kit, cat #17-10149), Sodium Chloride (NaCl, cat #56546-1L), Triton X-100 (cat #93443), Dithiothreitol (DTT, cat #43816-250 ML) were all purchased from Millipore Sigma.
# Assay Buffer: The assay buffer includes the following reagents: 50 mM Tris-HCl pH 8.0, 50 mM NaCl, 10 mM, MgCl2, 0.01% Triton X-100, and 1 mM DTT.
# PARP1 enzymatic assays were performed in 384-well plates in a total volume of 20 μL in the assay buffer. For concentration response curves, compounds were serially diluted 3-fold from 2 mM highest concentration […] to generate a 10-point curve, and 125 nL was transferred to the assay plate using the Echo acoustic dispenser for a final concentration range of 26.6 μM to […] in 10 μL reaction. Five microliters of 10 nM PARP1 enzyme and 100 nM core histones (2×) mix were added to the assay plates and pre-incubated for 30 mins at room temperature (RT). The reaction was initiated by the addition of a 5 μL of 10 uM β-NAD plus 0.02 mg/mL activated DNA (2×) mix. The reaction is incubated for 60 min at RT. The final concentration of the PARP1 enzyme and substrate concentrations were 5 nM and 5 uM, respectively. The positive control (high signal) and negative control (low signal) wells had 125 nL of DMSO in place of compounds. After the incubation is complete, the reaction is stopped by the addition of 10 μL of 10 uM of the 3ABA PARP1 inhibitor, incubated for 5 min at RT, and placed in the −80 C freezer for shipment to the Valo Health site in Branford Connecticut where mass spectrometry will be used to directly detect quantities of nicotinamide (NAM).
# The percent inhibition of enzyme activity was calculated according to the following equation: […]
# The values of Ssample, Shigh, and Slow in the equation refer to the NAM concentration detected in the assay wells, high control wells, and low control wells, respectively. To determine inhibitor IC50 values, % inhibition of the CRCs (concentration response curves) was fitted to the standard single-site four-parameter logistic equation.
# Sequence of PARP1 enzyme (P09874 whole entry): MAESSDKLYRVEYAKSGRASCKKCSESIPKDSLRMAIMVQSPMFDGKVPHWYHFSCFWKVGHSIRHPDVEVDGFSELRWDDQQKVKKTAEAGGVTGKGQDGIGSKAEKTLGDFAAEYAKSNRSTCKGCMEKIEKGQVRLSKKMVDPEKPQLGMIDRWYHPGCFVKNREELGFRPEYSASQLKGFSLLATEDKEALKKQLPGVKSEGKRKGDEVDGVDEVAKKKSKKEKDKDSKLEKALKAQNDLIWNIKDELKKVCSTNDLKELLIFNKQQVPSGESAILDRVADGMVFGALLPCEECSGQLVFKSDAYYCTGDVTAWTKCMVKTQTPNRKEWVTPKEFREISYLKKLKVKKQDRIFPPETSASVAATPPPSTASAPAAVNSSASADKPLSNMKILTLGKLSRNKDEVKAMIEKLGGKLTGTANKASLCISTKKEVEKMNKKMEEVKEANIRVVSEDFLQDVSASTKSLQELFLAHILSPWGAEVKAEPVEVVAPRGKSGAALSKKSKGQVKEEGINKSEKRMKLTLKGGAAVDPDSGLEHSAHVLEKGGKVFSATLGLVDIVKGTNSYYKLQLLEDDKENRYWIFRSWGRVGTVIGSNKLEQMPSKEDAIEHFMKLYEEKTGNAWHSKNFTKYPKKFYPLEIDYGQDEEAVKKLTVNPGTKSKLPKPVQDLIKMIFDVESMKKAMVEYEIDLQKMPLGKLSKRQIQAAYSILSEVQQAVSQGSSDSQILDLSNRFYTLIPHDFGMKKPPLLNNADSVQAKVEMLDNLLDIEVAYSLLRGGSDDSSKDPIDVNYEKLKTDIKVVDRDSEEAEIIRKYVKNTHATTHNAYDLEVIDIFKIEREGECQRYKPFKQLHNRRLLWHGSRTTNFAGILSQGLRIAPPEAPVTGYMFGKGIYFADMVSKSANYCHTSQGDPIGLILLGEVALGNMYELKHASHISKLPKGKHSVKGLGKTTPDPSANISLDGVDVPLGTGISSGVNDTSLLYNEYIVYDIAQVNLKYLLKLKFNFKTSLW
row,SMILES,IC50
1,O=c1[nH]nc2c3c(cc(F)cc13)N[C@@H](c1c(F)cc(F)cc1F)[C@@H]2C1CCNCC1 [Compound 0098B],30 nM
2,"CN1CCC([C@H]2Nc3cc(F)cc4c(=O)[nH]nc(c34)[C@@H]2c2ccc(F)cc2F)CC1 [Compound 0110A, (8R,9R)-9-(2,4-difluorophenyl)-5-fluoro-8-(1-methylpiperidin-4-yl)-2,7,8,9-tetrahydro-3H-pyrido[4,3,2-de]phthalazin-3-one]",1400 nM
3,"COCCN1CCC(C2Nc3cc(F)cc4c(=O)[nH]nc(c34)C2c2ccc(F)cc2F)C1 (stereo not drawn) [Compound 0111-6, 12-(2,4-difluorophenyl)-7-fluoro-11-[1-(2-methoxyethyl)pyrrolidin-3-yl]-2,3,10-triazatricyclo[7.3.1.0^{5,13}]trideca-1,5(13),6,8-tetraen-4-one]",164 nM
4,"O=c1[nH]nc2c3c(cc(F)cc13)NC[C@H]2c1ccc(F)cc1F [Compound 0114A, (R)-9-(2,4-difluorophenyl)-5-fluoro-2,7,8,9-tetrahydro-3H-pyrido[4,3,2-de]phthalazin-3-one]",270 nM
5,"COCCN1CCC(C2Nc3cc(F)cc4c(=O)[nH]nc(c34)C2c2ccccc2Cl)C1 (stereo not drawn) [Compound 0117-8, 12-(2-chlorophenyl)-7-fluoro-11-[1-(2-methoxyethyl)pyrrolidin-3-yl]-2,3,10-triazatricyclo[7.3.1.0^{5,13}]trideca-1,5(13),6,8-tetraen-4-one]",566 nM
6,O=c1[nH]nc2c3c(cc(F)cc13)NC(C1CCOC1)C2c1ccccc1Cl (stereo not drawn) [Compound 0121-4],39 nM
7,O=c1[nH]nc2c3c(cc(F)cc13)N[C@H]([C@@H]1CCOC1)[C@H]2c1ccccc1Cl [Compound 0121B],236 nM
8,O=c1[nH]nc2c3c(cc(F)cc13)N[C@@H]([C@H]1CCOC1)[C@@H]2c1ccccc1Cl [Compound 0121C],854 nM
9,"O=c1[nH]nc2c3c(cc(F)cc13)NC(C1CCNC1)C2c1ccc(F)cc1F (stereo not drawn) [Compound 0173A, 12-(2,4-difluorophenyl)-7-fluoro-11-(pyrrolidin-3-yl)-2,3,10-triazatricyclo[7.3.1.0^{5,13}]trideca-1,5(13),6,8-tetraen-4-one]",70 nM
10,N#Cc1ccc([C@@H]2CNc3cc(F)cc4c(=O)[nH]nc2c34)cc1F [Compound 0186A],243 nM
11,N#Cc1ccc([C@H]2CNc3cc(F)cc4c(=O)[nH]nc2c34)cc1F [Compound 0186B],41 nM
12,N#Cc1ccc([C@@H]2CNc3cc(F)cc4c(=O)[nH]nc2c34)c(F)c1 [Compound 0187A],9 nM
13,"O=c1[nH]nc2c3c(cc(F)cc13)NC[C@@H]2c1ccc(Cl)c(F)c1 [Compound 0188B, (S)-9-(4-chloro-3-fluorophenyl)-5-fluoro-2,7,8,9-tetrahydro-3H-pyrido[4,3,2-de]phthalazin-3-one]",99 nM
14,O=c1[nH]nc2c3c(cc(F)cc13)NC[C@H]2c1ccc(Cl)cc1F [Compound 0189A],79 nM
15,CN1CCC[C@H]([C@H]2CNc3cc(F)cc4c(=O)[nH]nc2c34)C1 [Compound 0191-8],46 nM
16,CN1CCC[C@H]([C@@H]2CNc3cc(F)cc4c(=O)[nH]nc2c34)C1 [Compound 0191C],50 nM

row,SMILES,IC50
1,CN1CCC[C@@H]([C@H]2CNc3cc(F)cc4c(=O)[nH]nc2c34)C1 [Compound 0191D],35 nM
2,CN1CCCC[C@@H]1[C@H]1CNc2cc(F)cc3c(=O)[nH]nc1c23 [Compound 0192B],22 nM
3,C[C@@H]1Nc2cc(F)cc3c(=O)[nH]nc(c23)[C@H]1c1ccc(C#N)cc1F [Compound 0194B],35 nM
4,"CC1Nc2cc(F)cc3c(=O)[nH]nc(c23)C1c1ccc(Cl)c(F)c1 (stereo not drawn) [Compound 0195-5, 9-(4-chloro-3-fluorophenyl)-5-fluoro-8-methyl-2,7,8,9-tetrahydro-3H-pyrido[4,3,2-de]phthalazin-3-one]",18 nM
5,CC1Nc2cc(F)cc3c(=O)[nH]nc(c23)C1c1ccc(Cl)cc1F (stereo not drawn) [Compound 0196-5],9 nM
6,C[C@H]1Nc2cc(F)cc3c(=O)[nH]nc(c23)[C@@H]1C1CCN(C)CC1 [Compound 0197A],447 nM
7,CC1Nc2cc(F)cc3c(=O)[nH]nc(c23)C1C1CCCN(C)C1 (stereo not drawn) [Compound 0198-5],244 nM
8,C[C@H]1Nc2cc(F)cc3c(=O)[nH]nc(c23)[C@H]1[C@@H]1CCCN(C)C1 [Compound 0198B],39 nM
9,C[C@@H]1Nc2cc(F)cc3c(=O)[nH]nc(c23)[C@H]1[C@H]1CCCN(C)C1 [Compound 0198C],45 nM
10,C[C@H]1Nc2cc(F)cc3c(=O)[nH]nc(c23)[C@@H]1[C@@H]1CCCN(C)C1 [Compound 0198D],42 nM
11,C[C@H]1Nc2cc(F)cc3c(=O)[nH]nc(c23)[C@@H]1[C@@H]1CCCCN1C [Compound 0199B],118 nM
12,C[C@@H]1Nc2cc(F)cc3c(=O)[nH]nc(c23)[C@H]1[C@@H]1CCCCN1C [Compound 0199D],25 nM
13,"CC[C@H]1Nc2cc(F)cc3c(=O)[nH]nc(c23)[C@@H]1c1ccccc1Cl [Compound 0206B, (11R,12R)-12-(2-chlorophenyl)-11-ethyl-7-fluoro-2,3,10-triazatricyclo[7.3.1.0^{5,13}]trideca-1,5(13),6,8-tetraen-4-one]",6 nM
14,CC(C)(C)C[C@H]1Nc2cc(F)cc3c(=O)[nH]nc(c23)[C@@H]1c1c(F)cc(F)cc1F [Compound 0219A],512 nM
15,CC(=O)N1CCC([C@H]2Nc3cc(F)cc4c(=O)[nH]nc(c34)[C@@H]2c2ccccc2Cl)CC1 [Compound 0223A],1200 nM
16,O=c1[nH]nc2c3c(cc(F)cc13)N[C@@H](CF)[C@@H]2c1ccc(Cl)cc1F [Compound 0252A],57 nM

# Further lines, results first:
row,IC50,SMILES
1,13 nM,"N#Cc1ccc(C2c3n[nH]c(=O)c4cc(F)cc(c34)NC2c2c(F)cc(F)cc2F)cc1F (stereo not drawn) [0092A; 0092B, 2-fluoro-4-(5-fluoro-3-oxo-8-(2,4,6-trifluorophenyl)-2,7,8,9-tetrahydro-3H-pyrido[4,3,2-de]phthalazin-9-yl)benzonitrile]"
2,5280 nM,"CN1CCC([C@H]2Nc3cc(F)cc4c(=O)[nH]nc(c34)[C@@H]2c2ccccc2Cl)CC1 [Compound 0116A, (8R,9R)-9-(2-chlorophenyl)-5-fluoro-8-(1-methylpiperidin-4-yl)-2,7,8,9-tetrahydro-3H-pyrido[4,3,2-de]phthalazin-3-one]"
3,91 nM,"O=c1[nH]nc2c3c(cc(F)cc13)NC(C1CCNC1)C2c1ccccc1Cl (stereo not drawn) [Compound 0171, 12-(2-chlorophenyl)-7-fluoro-11-(pyrrolidin-3-yl)-2,3,10-triazatricyclo[7.3.1.0^{5,13}]trideca-1,5(13),6,8-tetraen-4-one]"
4,18 nM,"C[C@@H]1Nc2cc(F)cc3c(=O)[nH]nc(c23)[C@H]1c1ccccc1Cl [Compound 0172B, (8S,9S)-9-(2-chlorophenyl)-5-fluoro-8-methyl-2,7,8,9-tetrahydro-3H-pyrido[4,3,2-de]phthalazin-3-one]"
5,1200 nM,O=c1[nH]nc2c3c(cc(F)cc13)NC(C1CCCN1)C2c1ccccc1Cl (stereo not drawn) [Compound 0181-6]
6,37 nM,CN1CCC[C@H]([C@H]2CNc3cc(F)cc4c(=O)[nH]nc2c34)C1 [Compound 0191B]
7,27 nM,CN1CCCC[C@@H]1[C@@H]1CNc2cc(F)cc3c(=O)[nH]nc1c23 [Compound 0192A]
8,65 nM,C[C@H]1Nc2cc(F)cc3c(=O)[nH]nc(c23)[C@@H]1[C@H]1CCCCN1C [Compound 0199A]
9,15 nM and 20 nM,O=c1[nH]nc2c3c(cc(F)cc13)NC(C1CCC(F)(F)CC1)C2c1c(F)cc(F)cc1F (stereo not drawn) [Compound 0212A]
10,352 nM,O=c1[nH]nc2c3c(cc(F)cc13)N[C@H](C1CCC(F)(F)CC1)[C@H]2c1ccccc1Cl [Compound 0213A]
11,108 nM,N#Cc1ccc([C@H]2c3n[nH]c(=O)c4cc(F)cc(c34)N[C@@H]2C2CCC(F)(F)CC2)cc1F [Compound 0214A]
12,20 nM,N#Cc1ccc([C@@H]2c3n[nH]c(=O)c4cc(F)cc(c34)N[C@H]2C2CCC(F)(F)CC2)cc1F [Compound 0214B]
13,2 nM,CC(C)[C@H]1Nc2cc(F)cc3c(=O)[nH]nc(c23)[C@@H]1c1c(F)cc(F)cc1F [Compound 0221A]
14,23 nM,CC(C)[C@H]1Nc2cc(F)cc3c(=O)[nH]nc(c23)[C@@H]1c1ccccc1Cl [Compound 0222A]
15,8 nM,O=c1[nH]nc2c3c(cc(F)cc13)N[C@H](CF)[C@H]2c1ccc(Cl)cc1F [Compound 0252B]
16,4 nM,O=c1[nH]nc2c3c(cc(F)cc13)NC(C1(F)CC1)C2c1ccc(Cl)cc1F (stereo not drawn) [Compound 0255-6]
